Data from US9656228B2, “Device and method for making solid beads” (Midatech Pharma (Wales) Limited, priority 2008, dated 2017).

Experiments:
[1] = Entrapment of active agent in PLGA beads with different anti-solvents, amount retained by HPLC and/or NMR; type: physicochemical; design: % active agent retained in solid beads: concentration or dose not given beside the values; details: for % active agent retained in solid beads: 50:50 PLGA P2191 beads
Description: The entrapment of pharmaceutically active compound was investigated to determine the effect of using different anti-solvents.
The general methodology described above was used. Leuprolide acetate dissolved in DMSO/PLGA mixture at between 1-5 mg/ml of solution. The 50:50 lactide/glycolide polymer P2191 used in Example 3 was used in this Example, at a concentration of 10% w/v.
The flow rates were as used in Example 1. On entering the cooling part of the device, the functional fluid formed frozen droplets. Desolvation of the frozen droplets caused the formation of solid beads.
Various anti-solvents were investigated to determine the effect of the anti-solvent on the amount of active agent (leuprolide acetate) retained in the beads. HPLC and/or NMR were used to determine the amount of leuprolide acetate retained.

[2] = Dissolution in warm water of particles precipitated from 10% w/v aqueous solution added dropwise to ethanol; type: physicochemical; details: particles/precipitate formed in ethanol from 10% w/v solution in water
Description: It is anticipated that such droplets may be of particular use in assays, since the saccharide would be readily soluble in water or aqueous solution. Solutions of 10% w/v of mannitol and dextran in water were prepared. The solutions were then added dropwise to ethanol. The dextran solution produced amorphous particles in ethanol. […] It is anticipated that a solution comprising both mannitol and dextran may be beneficial in that dextran appears to be suitable for forming discrete particles and mannitol may well be a suitable bulking agent. Furthermore, the mannitol may give the beads a more manageable consistency. Attempts were made to make solid beads from the polyol solutions using the apparatus of FIGS. 1-4. […] It is thought that further cooling of the apparatus is required in order to freeze the droplets. This may be achieved, for example, by improving the cooling capability of the cooler. A solution of 10% w/v of mannitol in dimethyl sulphoxide (DMSO) was prepared. […] It is therefore anticipated that droplets made from this solution would freeze using the apparatus of FIGS. 1 to 4, and that solvent may be extracted from the frozen droplets using an anti-solvent, such as ethanol. As mentioned above, it is anticipated that the saccharide-based droplets may be used in assays. […]

| Compound | % active agent retained in solid beads ([1]; anti-solvent Ethanol and pentanol) [%] | % active agent retained in solid beads ([1]; anti-solvent Heptanol (batch 1)) [%] | % active agent retained in solid beads ([1]; anti-solvent Octanol:ethanol (80:20)) [%] | % active agent retained in solid beads ([1]; anti-solvent Octanol:ethanol (90:10)) [%] | % active agent retained in solid beads ([1]; anti-solvent Pentane) [%] | % active agent retained in solid beads ([1]; anti-solvent Pentanol) [%] | retention of the active ([1]; lactide/glycolide polymer as bead polymer, various C3 to C8 alcohols as anti-solvent) [%] | dissolution in warm water [2] |
| --- | --- | --- | --- | --- | --- | --- | --- | --- |
| CCNC(=O)[C@@H]1CCCN1C(=O)[C@H](CCCNC(=N)N)NC(=O)[C@H](CC(C)C)NC(=O)[C@@H](CC(C)C)NC(=O)[C@H](Cc1ccc(O)cc1)NC(=O)[C@H](CO)NC(=O)[C@H](Cc1c[nH]c2ccccc12)NC(=O)[C@H](Cc1c[nH]cn1)NC(=O)[C@@H]1CCC(=O)N1 [leuprolide acetate, Leuprolide acetate] | 63 | 78 | 76 | 84 | 94 | 92 | 60 to 95 | – |
| OC[C@@H](O)[C@@H](O)[C@H](O)[C@H](O)CO [mannitol] | – | – | – | – | – | – | – | dissolved in warm water |
| dextran | – | – | – | – | – | – | – | readily dissolved in warm water |
